# Assay results published in patent US8771973B2, “Methods for treating bleeding disorders using sulfated polysaccharides” (Baxter Healthcare S.A., priority 2004, dated 2014).
# Assays:
# [1] = test system: Factor VII-deficient plasma; test: dPT assay, Factor VII-deficient plasma in absence of exogenous TFPI; type: biochemical, human; conditions: FVII-deficient plasma, no NASP + 0.1 nM FVIIa 173 seconds
# Description: (§1) The dPT assay used was a modified standard clinical PT assay (Nordfang et al. (1991) Thromb Haemost 66:464-467; Welsch et al. (1991) Thrombosis Research 64: 213-222). SIMPLASTIN EXCEL thromboplastin reagent (Organon Teknika) was reconstituted with the manufacturer's diluent and further diluted 1:100 in 0.9% saline. The thromboplastin reagent, 25 mM CaCl2, and plasma samples were pre-warmed to 37° C. before initiating the assay. 100 μl of thawed plasma was aliquoted into microcentrifuge tubes. […] 100 μl of the diluted thromboplastin reagent and 100 μl of 25 mM CaCl2 were added to fibrin cups (Fisher) prewarmed to 37° C. 100 μl of plasma (normal or hemophilic) containing the test agent or saline control was added to the fibrin cups containing the thromboplastin reagent and CaCl2 to initiate clotting. The time for plasma clotting was measured with a BBL FIBROSYSTEM fibrometer.
# Regulation of clotting in Factor VII-deficient plasma was also evaluated in dPT assays. […] Addition of FVIIa to approximately 0.1 nM restored the clotting time to about 150 seconds (data not shown). Such a variation in clotting time shown in the dPT assay mimics some forms of human factor VII-deficiency. Titration of fucoidan and PPS into FVII-deficient plasma accelerated clotting times.
# Hem-A plasma = test: dPT assay, Hem-A plasma in absence of exogenous TFPI; type: biochemical, human; conditions: Hem-A, no exogenous TFPI, no NASP 69 seconds
# Description: as §1
# The ability of NASPs to accelerate clotting of factor-deficient plasma in the absence of TFPI supplementation was also tested in dPT assays. A procoagulant response, if observed, may be related to neutralization of endogenous TFPI activity, which is present in human plasma at approximately 100 ng/ml (Nordfang et al., supra), largely associated with lipoprotein or platelets (Broze et al. (1992) Semin. Hematol. 29:159-169; Broze et al. (2003) J. Thromb. Haemost. 1:1671-1675).
# The ability of NASPs to accelerate clotting of Hem-A plasma in the absence of exogenous TFPI was tested. Fucoidan or PPS were titrated into Hem A plasma and dPT assays were performed. Additionally, the dose-response to factor VIIa was analyzed as a positive control for amplifying extrinsic pathway activation.
# [2] = test system: Hem-A plasma containing 1.25% FACT plasma; test: aPTT assay, NASPs in 1.25% FACT diluted in Hem-A plasma; type: biochemical, human; conditions: for concentration producing approximately 50% prolongation in clotting time, fold higher than for heparin: APTT, Hem-A plasma
# Description: Activated Partial Thromboplastin Time (aPTT) Assay The aPTT assay was performed as described previously with modifications (PDR Staff Physicians' Desk Reference. 2004, Anderson Lo, Barrowcliffe, T. W., Holmer, E., Johnson, E. A., Sims, G. E. C. Thromb. Res. 1976; 9:575-580). 25 mM CaCl2 and fibrin cups (Fisher) were pre-warmed to 37° C. 0.1 ml of thawed human plasma (normal or hemophilic) was added to warmed test tubes. 5 μl of saline (e.g. Sigma) or 5 μl of test agent (e.g., NASP) dissolved in saline was incubated with 95 μl of plasma for 30 minutes at room temperature. APTT reagent (e.g. Organon Teknika) was reconstituted in 3 ml distilled water and 0.1 ml of the reconstituted solution containing the APTT reagent was added to each test tube. 0.2 ml of plasma containing the test agent or saline control and aPTT reagent were transferred from test tubes to pre-warmed fibrin cups and incubated for 2-3 minutes. 0.1 ml of pre-warmed 25 mM CaCl2 was added to initiate clotting, and the time for plasma clotting was measured with a BBL FIBROSYSTEM fibrometer.
# The effect of NASPs on the clotting time of plasma was determined as follows: 5 μl of a NASP was added to 95 μl of 1.25% FACT diluted in human Hem-A plasma and incubated at room temperature for 30 minutes. aPTT assays were performed to determine plasma clotting time as described in Example 1.
# TFPI [3] = molecular target: T1, TFPI (Homo sapiens, UniProt P10646); test: dPT assay, inhibition of TFPI activity in Hem-B plasma, TFPI preincubated with NASP; type: biochemical; conditions: Hem-B + TFPI, plasma alone 46, + TFPI 101 seconds
# T1 construct: purchased American Diagnostica (Stamford, Conn.)
# T1 sequence (P10646 29-304): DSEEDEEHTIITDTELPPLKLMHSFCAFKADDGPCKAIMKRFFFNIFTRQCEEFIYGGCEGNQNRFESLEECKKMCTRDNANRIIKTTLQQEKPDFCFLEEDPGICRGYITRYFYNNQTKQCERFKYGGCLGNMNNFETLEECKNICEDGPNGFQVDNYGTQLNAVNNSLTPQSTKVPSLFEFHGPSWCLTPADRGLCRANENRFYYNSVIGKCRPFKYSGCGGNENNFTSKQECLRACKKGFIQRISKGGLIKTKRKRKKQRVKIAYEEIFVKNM
# Description: as §1
# Inhibition of TFPI activity by NASPs was assessed in dPT clotting assays with normal or hemophilic plasma and added recombinant TFPI. Diluted recombinant TFPI was preincubated with NASPs for 5 minutes at room temperature before plasma was added. After addition of plasma, the mixture was incubated for an additional 25 minutes followed by dPT initiation.
# The acceleration of plasma clotting by the NASPs in the presence of TFPI was also tested in Hem-B and normal plasma.
# TFPI [4] = molecular target: T1, TFPI; test: dPT assay, inhibition of TFPI activity in Hem-A plasma without preincubation; type: biochemical; conditions: no preincubation; for clotting time, dPT: Hem-A + TFPI, HemA + TFPI 183, alone 45 seconds
# Description: as §1
# Experiments were repeated without a preincubation of the sulfated polysaccharides with TFPI prior to exposure to plasma. To extend the stringency of the test for NASP inhibition of TFPI activity, TFPI was added to the plasma before the NASP was added.
Substance,"clotting time, dPT ([1]; 0.8 nM) [s]","clotting time, dPT ([1]; 4 nM) [s]","clotting time, dPT ([1]; 20 nM) [s]","clotting time, dPT ([1]; 100 nM) [s]","clotting time, dPT ([1]; 500 nM) [s]","clotting time, dPT (Hem-A plasma; 0.16 nM) [s]","clotting time, dPT (Hem-A plasma; 0.8 nM) [s]","clotting time, dPT (Hem-A plasma; 4 nM) [s]","clotting time, dPT (Hem-A plasma; 20 nM) [s]","clotting time, dPT (Hem-A plasma; 100 nM) [s]","clotting time, aPTT ([2]; 0.8 nM) [s]","clotting time, aPTT ([2]; 4 nM) [s]","clotting time, aPTT ([2]; 20 nM) [s]","clotting time, aPTT ([2]; 100 nM) [s]","concentration producing approximately 50% prolongation in clotting time, fold higher than for heparin [2] [fold]","clotting time, dPT (TFPI [3]; 0.16 nM) [s]","clotting time, dPT (TFPI [3]; 0.8 nM) [s]","clotting time, dPT (TFPI [3]; 4 nM) [s]","clotting time, dPT (TFPI [3]; 20 nM) [s]","clotting time, dPT (TFPI [3]; 100 nM) [s]",further results
Pentosan Polysulphate Sodium [PPS],198,181,159,142,113,69,68,66,62,60,70,71,72,80,100,106,90,82,65,52,"clotting time, aPTT ([2]; 500 nM): 113 s; clotting time, dPT (TFPI [3]; 500 nM): 56 s; clotting time, dPT (TFPI [4]; 0.8 nM): 192 s; clotting time, dPT (TFPI [4]; 4 nM): 156 s; clotting time, dPT (TFPI [4]; 20 nM): 81 s; clotting time, dPT (TFPI [4]; 100 nM): 76 s; clotting time, dPT (TFPI [4]; 500 nM): 73 s"
Fucoidan,168,147,120,74,111,70,68,63,~55,56,70,71,75,119,10,108,95,80,54,50,"clotting time, aPTT ([2]; 0.16 nM): 71 s; clotting time, dPT (TFPI [3]; 500 nM): 60 s; clotting time, dPT (TFPI [4]; 0.8 nM): 210 s; clotting time, dPT (TFPI [4]; 4 nM): 78 s; clotting time, dPT (TFPI [4]; 20 nM): 59 s; clotting time, dPT (TFPI [4]; 100 nM): 54 s; clotting time, dPT (TFPI [4]; 500 nM): 90 s; concentration window for significant clotting acceleration (TFPI [4]; Hem A plasma + TFPI): greater than 100 fold"
